These results are taken from patent US10975037B2 (priority 2018, dated 2021).

Where two headings read alike, the source gives them in different places. Marks after values point to notes of the source that are not given here.

The term Kd denotes the equilibrium constant for the complex coming apart. The term inhibition denotes the drop in the measured response relative to a control, in per cent. As a reminder, the IC50 is the concentration at which inhibition is half-maximal.

Assay [1] deals with human RORγt ligand binding domain (RORγt LBD) (Homo sapiens (Human), UniProt P51449). The experiment in a line: RORγt ThermoFluor® assay (thermal shift binding). The procedure, abridged:
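Thermal shift with 0.065 mg/mL RORγt LBD and 60 μM 1,8-ANS in 100 mM Hepes pH 7.0, 10 mM NaCl, 2.5 mM GSH, 0.002% Tween-20.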
(In general: DSF heats the sample and reads unfolding from a dye or from intrinsic fluorescence.)

The next assay concerns the target full-length human RORγt (Homo sapiens (Human), UniProt P51449). The assay can be described thus: RORγt (full-length human) reporter assay, conditions A or B, HEK293T cells. It counts as cell-based. Conditions: for inhibition at 0.67 µM / inhibition at 6 µM / inhibition at 2 µM / inhibition at […] / inhibition at 3 µM: HEK-293T; for inhibition at 0.67 µM: 0.67 μM compound concentration (footnote ****); for inhibition at 0.67 µM / inhibition at 2 µM / inhibition at […] / inhibition at 3 µM: read-out: RORγt (FL) Reporter Assay A or B, % inhibition; for inhibition at 6 µM: read-out: RORγt (FL) Reporter Assay A or B, % inhibition @ 6 μM, 6 μM compound concentration; for inhibition at 2 µM: 2 μM compound concentration; for inhibition at […]: 0.22 μM compound concentration (footnote *******). Summed up:
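Dual-luciferase read-out was taken after an overnight (16–20 h) compound exposure. Firefly data were scaled between DMSO-only and saturating reference compound, Renilla-normalized, then plotted against concentration for IC50.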
On the technique in general: In a reporter assay the amount or activity of a reporter protein is the signal.

The mark [2] stands for this setting: read-out: ThermoFluor® Assay, Kd.
[3] abbreviates: RORγt (FL) Reporter Assay A or B, IC50, HEK293T cells.
The mark [4] stands for this setting: 3 μM compound concentration (footnote *).

Chain of human RORγt ligand binding domain (RORγt LBD) (P51449 other isoform, or with tags, fused parts or gaps): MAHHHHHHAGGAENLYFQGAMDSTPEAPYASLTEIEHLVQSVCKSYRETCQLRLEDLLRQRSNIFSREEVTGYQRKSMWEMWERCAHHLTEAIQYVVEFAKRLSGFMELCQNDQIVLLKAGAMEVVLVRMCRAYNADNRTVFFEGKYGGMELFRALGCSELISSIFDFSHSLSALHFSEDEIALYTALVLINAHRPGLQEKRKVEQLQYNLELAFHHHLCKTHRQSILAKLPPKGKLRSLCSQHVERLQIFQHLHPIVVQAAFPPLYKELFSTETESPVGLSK
Chain of full-length human RORγt (P51449 other isoform, or with tags, fused parts or gaps): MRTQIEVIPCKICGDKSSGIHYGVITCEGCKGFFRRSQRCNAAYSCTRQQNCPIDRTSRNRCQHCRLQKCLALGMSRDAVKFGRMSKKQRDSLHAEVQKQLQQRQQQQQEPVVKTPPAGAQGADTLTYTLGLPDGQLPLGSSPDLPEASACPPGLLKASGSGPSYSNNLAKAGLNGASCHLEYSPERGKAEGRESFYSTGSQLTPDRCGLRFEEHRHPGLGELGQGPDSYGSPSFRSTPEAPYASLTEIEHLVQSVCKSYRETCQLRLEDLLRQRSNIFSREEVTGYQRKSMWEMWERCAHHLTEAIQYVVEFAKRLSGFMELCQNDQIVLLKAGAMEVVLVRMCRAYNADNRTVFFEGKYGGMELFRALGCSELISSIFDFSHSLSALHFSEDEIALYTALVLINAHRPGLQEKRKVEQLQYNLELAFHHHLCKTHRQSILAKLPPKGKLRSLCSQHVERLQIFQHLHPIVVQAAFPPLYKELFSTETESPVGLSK

For `COCCn1nc(C(=O)NC[C@H]2CC[C@H](S(C)(=O)=O)CC2)c(Cl)c1-c1ccc(CC(C)(C)C(F)(F)F)cc1OC(F)F` [Example 148, 4-Chloro-5-(2-(difluoromethoxy)-4-(3,3,3-trifluoro-2,2-dimethylpropyl)phenyl)-1-(2-methoxyethyl)-N-(((1r,4r)-4-(methylsulfonyl)cyclohexyl)methyl)-1H-pyrazole-3-carboxamide], the Kd in assay [1] (setting [2]) was found to be 0.16 nM. Further, the inhibition at 0.67 µM at full-length human RORγt worked out at 91%. This compound displayed an IC50 against full-length human RORγt (setting [3]) of 2 nM.
Take `CCn1nc(C(=O)NC[C@]2(O)CC[C@@H](S(C)(=O)=O)CC2)c(C#N)c1-c1ccc(CCC(F)(F)F)cc1OC` [Example 124, 4-Cyano-1-ethyl-N-(((1s,4s)-1-hydroxy-4-(methylsulfonyl)cyclohexyl)methyl)-5-(2-methoxy-4-(3,3,3-trifluoropropyl)phenyl)-1H-pyrazole-3-carboxamide]: in assay [1] (setting [2]), the Kd amounted to 170 nM. Also, at full-length human RORγt, the inhibition at 6 µM stood at 83%. For the same compound, at full-length human RORγt (setting [3]), the IC50 was found to be 770 nM.
For the compound `CCn1nc(C(=O)NC[C@@H]2CC[C@@H](S(C)(=O)=O)CO2)c(Cl)c1-c1ccc(CC(C)(C)C(F)(F)F)cc1OC(F)F` (single isomer, unassigned) [Example 16, 4-Chloro-5-(2-(difluoromethoxy)-4-(3,3,3-trifluoro-2,2-dimethylpropyl)phenyl)-1-ethyl-N-(((2S*,5R*)-5-(methylsulfonyl)tetrahydro-2H-pyran-2-yl)methyl)-1H-pyrazole-3-carboxamide], in assay [1] (ThermoFluor® Assay, Kd), the Kd is 0.19 nM. Moreover, the inhibition at 0.67 µM on full-length human RORγt worked out at 105%. Also, inhibition at full-length human RORγt (setting [3]) was half-maximal at 4.8 nM (IC50).
For the compound `CCOC(=O)[C@]1(CNC(=O)c2nn(CC)c(-c3ccc(N[C@H](C)C(F)(F)F)cc3OC)c2Cl)CC[C@H](S(C)(=O)=O)CC1` (relative stereo) [Example 94, Ethyl (1s*,4S*)-1-((4-chloro-1-ethyl-5-(2-methoxy-4-(((R)-1,1,1-trifluoropropan-2-yl)amino)phenyl)-1H-pyrazole-3-carboxamido)methyl)-4-(methylsulfonyl)cyclohexane-1-carboxylate], the Kd in assay [1] (ThermoFluor® Assay, Kd) stood at 0.22 nM. Moreover, the inhibition at 6 µM at full-length human RORγt is 101%. At full-length human RORγt (setting [3]), the IC50 came to 6 nM.
Consider `CCn1nc(C(=O)NC[C@H]2CC[C@H](S(C)(=O)=O)CC2)c(Cl)c1-c1ccc(N2CC(C(F)(F)F)C2)cc1OC` [Example 208, 4-Chloro-1-ethyl-5-(2-methoxy-4-(3-(trifluoromethyl)azetidin-1-yl)phenyl)-N-(((1r,4r)-4-(methylsulfonyl)cyclohexyl)methyl)-1H-pyrazole-3-carboxamide], for which the Kd in assay [1] (setting [2]) is 40 nM. In addition, the inhibition at 2 µM on full-length human RORγt is 87%. Moreover, at full-length human RORγt (setting [3]), the IC50 was 150 nM.
For `CCn1nc(C(=O)NC[C@]2(O)CC[C@@H](S(C)(=O)=O)CC2)c(Cl)c1-c1ccc(CCC(F)(F)F)cc1OC(F)(F)F` [Example 188, 4-Chloro-1-ethyl-N-(((1s,4s)-1-hydroxy-4-(methylsulfonyl)cyclohexyl)methyl)-5-(2-(trifluoromethoxy)-4-(3,3,3-trifluoropropyl)phenyl)-1H-pyrazole-3-carboxamide] the same measures were 11 nM, 34% and more than 2000 nM.
For `CCn1nc(C(=O)NC[C@H]2CC[C@H](S(C)(=O)=O)CC2)c(Cl)c1-c1ccc(CC(C)(C)C(F)(F)F)cc1` [Example 168, 4-Chloro-1-ethyl-N-(((1r,4r)-4-(methylsulfonyl)cyclohexyl)methyl)-5-(4-(3,3,3-trifluoro-2,2-dimethylpropyl)phenyl)-1H-pyrazole-3-carboxamide], the Kd in assay [1] (setting [2]) was found to be 4 nM. Moreover, at full-length human RORγt, the inhibition at […] turned out to be 71%. This compound displayed an IC50 at full-length human RORγt (setting [3]) of 18 nM.
For `CCn1nc(C(=O)NC[C@H]2CC[C@H](S(C)(=O)=O)CC2)c(Cl)c1-c1ccc(CC(C)(C)C(F)(F)F)cc1F` [Example 177, 4-Chloro-1-ethyl-5-(2-fluoro-4-(3,3,3-trifluoro-2,2-dimethylpropyl)phenyl)-N-(((1r,4r)-4-(methylsulfonyl)cyclohexyl)methyl)-1H-pyrazole-3-carboxamide] the same measures were 2.2 nM, 77% and 7.2 nM.
Take `CCn1nc(C(=O)NC[C@]2(O)CC[C@@H](S(C)(=O)=O)C[C@H]2O)c(C)c1-c1ccc(C[C@@H](C)C(F)(F)F)cc1OC(F)F` (stereo in doubt) [Example 140, 5-(2-(Difluoromethoxy)-4-((R*)-3,3,3-trifluoro-2-methylpropyl)phenyl)-N-(((1R*,2R*,4R*)-1,2-dihydroxy-4-(methylsulfonyl)cyclohexyl)methyl)-1-ethyl-4-methyl-1H-pyrazole-3-carboxamide]: the Kd in assay [1] (ThermoFluor® Assay, Kd) amounted to 2.4 nM. The inhibition at 3 µM on full-length human RORγt (setting [4]) was found to be 109%. Moreover, on full-length human RORγt (setting [3]), half-maximal inhibition (IC50) was put at 15 nM.
Consider `Cc1c(C(=O)NC[C@]2(O)CC[C@@H](S(C)(=O)=O)CC2)nn(CC(C)(C)O)c1-c1ccc(CC(C)(C)C(F)(F)F)cc1OC(F)F` [Example 146, 5-(2-(Difluoromethoxy)-4-(3,3,3-trifluoro-2,2-dimethylpropyl)phenyl)-1-(2-hydroxy-2-methylpropyl)-N-(((1s,4s)-1-hydroxy-4-(methylsulfonyl)cyclohexyl)methyl)-4-methyl-1H-pyrazole-3-carboxamide], for which, in assay [1] (setting [2]), the Kd is 15 nM. Further, the inhibition at 3 µM at full-length human RORγt (setting [4]) was determined as 106%. This compound yielded an IC50 on full-length human RORγt (setting [3]) of 15 nM.
With `CCn1nc(C(=O)NC[C@H]2CC[C@H](S(C)(=O)=O)CC2)c(Cl)c1-c1ccc(NCC(F)(F)F)cc1OC` [Example 25, 4-Chloro-1-ethyl-5-(2-methoxy-4-((2,2,2-trifluoroethyl)amino)phenyl)-N-(((1r,4r)-4-(methylsulfonyl)cyclohexyl)methyl)-1H-pyrazole-3-carboxamide], the Kd in assay [1] (setting [2]) came to 31 nM. For the same compound, at full-length human RORγt, the inhibition at 6 µM stood at 105%. On full-length human RORγt (setting [3]), this compound yielded an IC50 of 120 nM.
Turning to `CCCn1nc(C(=O)NC[C@]2(O)CC[C@@H](S(C)(=O)=O)CC2)c(Cl)c1-c1ccc(C[C@@H](C)C(F)(F)F)cc1OC` (single isomer, unassigned) [Example 42, 4-Chloro-N-(((1s,4S)-1-hydroxy-4-(methylsulfonyl)cyclohexyl)methyl)-5-(2-methoxy-4-((R*)-3,3,3-trifluoro-2-methylpropyl)phenyl)-1-propyl-1H-pyrazole-3-carboxamide], the Kd in assay [1] (ThermoFluor® Assay, Kd) came to 0.42 nM. In addition, on full-length human RORγt, the inhibition at 2 µM is 101%. The compound further displayed a concentration for half-maximal inhibition (IC50) against full-length human RORγt (setting [3]) of 9 nM.
On to `CCn1nc(C(=O)NC[C@@]2(O)CC[C@H](S(C)(=O)=O)C[C@@H]2O)c(C)c1-c1ccc(C[C@H](C)C(F)(F)F)cc1OC(F)F` (stereo in doubt) [Example 57, 5-(2-(Difluoromethoxy)-4-((S*)-3,3,3-trifluoro-2-methylpropyl)phenyl)-N-(((1S*,2S*,4S*)-1,2-dihydroxy-4-(methylsulfonyl)cyclohexyl)methyl)-1-ethyl-4-methyl-1H-pyrazole-3-carboxamide], for which the Kd in assay [1] (ThermoFluor® Assay, Kd) is 5.7 nM. The inhibition at 3 µM at full-length human RORγt (setting [4]) turned out to be 95%. The same compound came in with an IC50 at full-length human RORγt (setting [3]) of 35 nM.
As to `CCn1nc(C(=O)NC[C@]2(C(=O)O)CC[C@H](S(C)(=O)=O)CC2)c(Cl)c1-c1ccc(CC(C)(C)C(F)(F)F)cc1OC(F)F` [Example 121, (1r*,4r*)-1-((4-Chloro-5-(2-(difluoromethoxy)-4-(3,3,3-trifluoro-2,2-dimethylpropyl)phenyl)-1-ethyl-1H-pyrazole-3-carboxamido)methyl)-4-(methylsulfonyl)cyclohexane-1-carboxylic Acid], in assay [1] (ThermoFluor® Assay, Kd), the Kd was 43 nM. The inhibition at 6 µM at full-length human RORγt stood at 106%. At full-length human RORγt (setting [3]), 830 nM corresponded to half-maximal inhibition (IC50).
In the case of `CCn1nc(C(=O)NC[C@H]2CC[C@H](S(C)(=O)=O)CC2)c(C#N)c1-c1ccc(CC(C)(C)C(F)(F)F)cc1OC` [Example 127, 4-Cyano-1-ethyl-5-(2-methoxy-4-(3,3,3-trifluoro-2,2-dimethylpropyl)phenyl)-N-(((1r,4r)-4-(methylsulfonyl)cyclohexyl)methyl)-1H-pyrazole-3-carboxamide], in assay [1] (setting [2]), the Kd was 3.7 nM. Moreover, the inhibition at 0.67 µM at full-length human RORγt is 94%. This compound also had an IC50 on full-length human RORγt (setting [3]) of 20 nM.
With `CCn1nc(C(=O)NC[C@@H]2CC[C@H](S(C)(=O)=O)CO2)c(Cl)c1-c1ccc(N[C@H](C)C(F)(F)F)cc1OC` (relative stereo) [Example 18, 4-Chloro-1-ethyl-5-(2-methoxy-4-(((R)-1,1,1-trifluoropropan-2-yl)amino)phenyl)-N-(((2S*,5S*)-5-(methylsulfonyl)tetrahydro-2H-pyran-2-yl)methyl)-1H-pyrazole-3-carboxamide], the Kd in assay [1] (ThermoFluor® Assay, Kd) was determined as 240 nM. Also, at full-length human RORγt, the inhibition at 6 µM is 102%. Also, the IC50 on full-length human RORγt (setting [3]) is 830 nM.
As for `CCn1nc(C(=O)NC[C@H]2CC[C@H](S(=O)(=O)NC(C)=O)CC2)c(Cl)c1-c1ccc(CC(C)(C)C(F)(F)F)cc1OC(F)F` [Example 68, N-(((1r,4r)-4-(N-Acetylsulfamoyl)cyclohexyl)methyl)-4-chloro-5-(2-(difluoromethoxy)-4-(3,3,3-trifluoro-2,2-dimethylpropyl)phenyl)-1-ethyl-1H-pyrazole-3-carboxamide], the Kd in assay [1] (setting [2]) was found to be 0.7 nM. Moreover, at full-length human RORγt (setting [4]), the “RORγt (FL) Reporter Assay A or B, % inhibition” value is 97* %. In addition, the IC50 on full-length human RORγt (HEK293T cells, read-out: RORγt (FL) Reporter Assay A or B, IC50) came out at 39 nM.
